Assays:
[1] = molecular target: T1, Phospho-EGFR (Tyr1068) in A431 cells (Homo sapiens, UniProt P00533); test: HTRF pEGFR/total EGFR in A431 cells with EGF stimulation; format: cell-based; conditions: ratio pEGFR/total EGFR, compound 2.5 hours then 100 ng/ml EGF 30 mins
T1 construct: endogenous in cells; host or cells: A431
Experimental: Cells were plated at 20,000 cells per well in 96 well plates and placed at 37° C. 5% CO2. Once adhered (after 24 h) cells were treated with compounds dissolved in DMSO at a final concentration of 0.1% DMSO in media. Compounds were diluted in media then added to cells for 2.5 hours in duplicate, 100 ng/ml EGF (ThermoFisher, PHG0311) was added to all compound treated cells as well as a control for 30 mins. Compound and media were removed from the cells, then 50 ul of HTRF lysis buffer was added (lysis buffer was diluted from 4× stock to 1× in DI water, with 1% blocking agent also added). Cells were lysed on a plate shaker (2000 rpm) for 30 minutes at room temperature. pEGFR expression was monitored using the Cisbio Phospho-EGFR (Tyr1068) cellular kit (64EG1PEH). Total EGFR expression was monitored using the Cisbio Total EGFR cellular kit (64NG1PEH) as per manufacturer's instructions. Fluorescence emission was read at two different wavelengths (665 nm and 620 nm) on a PheraStar. Results were calculated as ratio of pEGFR/total EGFR and then percentage of 0 μM control.

[2] = molecular target: CtermHisTag-mEGFR Wild type (Homo sapiens, UniProt P00533); test: biochemical
[3] = molecular target: T2, Phospho-EGFR (Tyr1068) in H1975 cells (Homo sapiens, UniProt P00533, L858R/T790M); test: HTRF pEGFR/total EGFR in H1975 cells; format: cell-based; conditions: ratio pEGFR/total EGFR, compound 3 hours
T2 construct: host or cells: H1975
Experimental: (§1) H1975 cells (ATCC CRL-5908) were plated at 20,000 cells per well in 96 well plates and placed at 37° C. 5% CO2. Once adhered (after 24 h) cells were treated with compounds dissolved in DMSO at a final concentration of 0.1% DMSO in media. Compounds were diluted in media then added to cells for 3 hours in duplicate. Compound and media were removed from the cells, then 50 ul of HTRF lysis buffer is added (lysis buffer was diluted from 4× stock to 1× in DI water, with 1% blocking agent also added). Cells were lysed on a plate shaker (2000 rpm) for 30 minutes at room temperature. pEGFR expression was monitored using the Cisbio Phospho-EGFR (Tyri068) cellular kit (64EG1PEH). Total EGFR expression was monitored using the Cisbio Total EGFR cellular kit (64NG1PEH) as per manufacturer's instructions. Fluorescence emission was read at two different wavelengths (665 nm and 620 nm) on a PheraStar. Results were calculated as ratio of pEGFR/total EGFR and then percentage of 0 μM control.

[4] = molecular target: T3, Phospho-EGFR (Tyr1068) in H1975 C797S cells (CRISPR-edited EGFR C797S) (Homo sapiens, UniProt P00533, C797S/L858R/T790M); test: HTRF pEGFR/total EGFR in H1975 C797S cells; format: cell-based; conditions: ratio pEGFR/total EGFR, compound 3 hours
T3 construct: host or cells: H1975 C797S (CRISPR-edited)
Experimental: as §1, with “[…]. Once” for “H1975 cells (ATCC CRL-5908) were plated at 20,000 cells per well in 96 well plates and placed at 37° C. 5% CO2. Once”, “buffer was” for “buffer is”, “Phospho-EGFR (Tyr1068)” for “Phospho-EGFR (Tyri068)”

Chain of CtermHisTag-mEGFR Wild type (P00533 whole entry): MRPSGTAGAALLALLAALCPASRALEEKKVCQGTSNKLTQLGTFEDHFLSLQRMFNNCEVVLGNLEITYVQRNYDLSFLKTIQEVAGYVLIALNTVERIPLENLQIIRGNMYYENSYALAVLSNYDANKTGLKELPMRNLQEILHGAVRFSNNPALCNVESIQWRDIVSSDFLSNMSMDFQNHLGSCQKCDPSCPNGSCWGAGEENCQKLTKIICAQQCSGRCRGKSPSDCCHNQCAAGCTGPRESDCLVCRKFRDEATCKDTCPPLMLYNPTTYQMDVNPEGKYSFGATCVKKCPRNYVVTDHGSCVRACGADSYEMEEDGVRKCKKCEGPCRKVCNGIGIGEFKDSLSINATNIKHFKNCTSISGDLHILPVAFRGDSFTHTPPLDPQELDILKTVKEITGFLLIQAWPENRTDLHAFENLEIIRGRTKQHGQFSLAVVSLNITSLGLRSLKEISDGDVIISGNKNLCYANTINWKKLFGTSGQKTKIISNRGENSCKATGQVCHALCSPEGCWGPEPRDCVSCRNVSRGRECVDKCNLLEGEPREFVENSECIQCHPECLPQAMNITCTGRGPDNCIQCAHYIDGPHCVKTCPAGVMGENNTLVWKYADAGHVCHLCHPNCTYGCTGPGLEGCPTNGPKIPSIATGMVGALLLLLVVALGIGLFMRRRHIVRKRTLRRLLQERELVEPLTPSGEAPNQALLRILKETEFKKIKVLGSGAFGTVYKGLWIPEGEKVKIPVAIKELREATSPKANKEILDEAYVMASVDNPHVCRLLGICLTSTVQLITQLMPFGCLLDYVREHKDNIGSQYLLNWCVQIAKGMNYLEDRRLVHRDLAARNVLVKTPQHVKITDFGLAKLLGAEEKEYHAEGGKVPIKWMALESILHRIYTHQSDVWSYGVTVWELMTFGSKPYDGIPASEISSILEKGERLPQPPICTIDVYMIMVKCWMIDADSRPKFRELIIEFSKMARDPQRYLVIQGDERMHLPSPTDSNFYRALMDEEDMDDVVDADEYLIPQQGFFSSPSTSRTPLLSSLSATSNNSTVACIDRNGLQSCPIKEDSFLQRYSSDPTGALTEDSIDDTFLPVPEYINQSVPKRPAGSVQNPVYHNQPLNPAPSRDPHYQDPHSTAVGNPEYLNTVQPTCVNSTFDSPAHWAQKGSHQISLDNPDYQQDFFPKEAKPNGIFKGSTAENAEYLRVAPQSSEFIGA
T2 sequence (P00533 25-1210 T790M/L858R): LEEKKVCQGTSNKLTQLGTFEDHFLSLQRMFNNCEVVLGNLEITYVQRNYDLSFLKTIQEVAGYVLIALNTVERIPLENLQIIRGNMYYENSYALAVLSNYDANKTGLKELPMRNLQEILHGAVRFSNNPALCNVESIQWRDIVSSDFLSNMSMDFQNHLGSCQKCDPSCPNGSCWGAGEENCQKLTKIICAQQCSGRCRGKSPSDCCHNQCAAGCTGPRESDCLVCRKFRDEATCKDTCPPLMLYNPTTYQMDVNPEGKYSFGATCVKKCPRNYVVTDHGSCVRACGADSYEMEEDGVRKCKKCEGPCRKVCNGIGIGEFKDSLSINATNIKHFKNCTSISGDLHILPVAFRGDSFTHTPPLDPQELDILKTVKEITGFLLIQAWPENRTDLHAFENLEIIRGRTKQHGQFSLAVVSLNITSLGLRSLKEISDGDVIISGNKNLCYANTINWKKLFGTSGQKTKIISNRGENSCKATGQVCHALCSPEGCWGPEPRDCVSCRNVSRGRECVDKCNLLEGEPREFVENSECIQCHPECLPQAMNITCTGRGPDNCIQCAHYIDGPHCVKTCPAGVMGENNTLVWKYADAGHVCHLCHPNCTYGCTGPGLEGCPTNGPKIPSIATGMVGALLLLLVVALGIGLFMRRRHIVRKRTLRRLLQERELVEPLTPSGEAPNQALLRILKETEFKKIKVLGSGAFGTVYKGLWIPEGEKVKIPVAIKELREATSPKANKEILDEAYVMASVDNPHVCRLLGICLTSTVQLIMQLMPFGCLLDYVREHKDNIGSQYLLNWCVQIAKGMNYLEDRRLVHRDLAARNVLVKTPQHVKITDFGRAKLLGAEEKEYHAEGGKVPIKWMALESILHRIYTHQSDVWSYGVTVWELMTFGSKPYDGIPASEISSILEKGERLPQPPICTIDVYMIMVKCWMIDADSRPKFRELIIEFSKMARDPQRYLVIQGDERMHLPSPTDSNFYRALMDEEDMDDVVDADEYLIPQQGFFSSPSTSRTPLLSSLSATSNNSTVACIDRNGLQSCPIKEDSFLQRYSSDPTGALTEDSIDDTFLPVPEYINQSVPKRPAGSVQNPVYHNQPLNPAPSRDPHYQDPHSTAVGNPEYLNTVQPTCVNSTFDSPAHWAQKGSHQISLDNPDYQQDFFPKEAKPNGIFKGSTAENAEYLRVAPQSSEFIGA
T1 sequence (P00533 25-1210): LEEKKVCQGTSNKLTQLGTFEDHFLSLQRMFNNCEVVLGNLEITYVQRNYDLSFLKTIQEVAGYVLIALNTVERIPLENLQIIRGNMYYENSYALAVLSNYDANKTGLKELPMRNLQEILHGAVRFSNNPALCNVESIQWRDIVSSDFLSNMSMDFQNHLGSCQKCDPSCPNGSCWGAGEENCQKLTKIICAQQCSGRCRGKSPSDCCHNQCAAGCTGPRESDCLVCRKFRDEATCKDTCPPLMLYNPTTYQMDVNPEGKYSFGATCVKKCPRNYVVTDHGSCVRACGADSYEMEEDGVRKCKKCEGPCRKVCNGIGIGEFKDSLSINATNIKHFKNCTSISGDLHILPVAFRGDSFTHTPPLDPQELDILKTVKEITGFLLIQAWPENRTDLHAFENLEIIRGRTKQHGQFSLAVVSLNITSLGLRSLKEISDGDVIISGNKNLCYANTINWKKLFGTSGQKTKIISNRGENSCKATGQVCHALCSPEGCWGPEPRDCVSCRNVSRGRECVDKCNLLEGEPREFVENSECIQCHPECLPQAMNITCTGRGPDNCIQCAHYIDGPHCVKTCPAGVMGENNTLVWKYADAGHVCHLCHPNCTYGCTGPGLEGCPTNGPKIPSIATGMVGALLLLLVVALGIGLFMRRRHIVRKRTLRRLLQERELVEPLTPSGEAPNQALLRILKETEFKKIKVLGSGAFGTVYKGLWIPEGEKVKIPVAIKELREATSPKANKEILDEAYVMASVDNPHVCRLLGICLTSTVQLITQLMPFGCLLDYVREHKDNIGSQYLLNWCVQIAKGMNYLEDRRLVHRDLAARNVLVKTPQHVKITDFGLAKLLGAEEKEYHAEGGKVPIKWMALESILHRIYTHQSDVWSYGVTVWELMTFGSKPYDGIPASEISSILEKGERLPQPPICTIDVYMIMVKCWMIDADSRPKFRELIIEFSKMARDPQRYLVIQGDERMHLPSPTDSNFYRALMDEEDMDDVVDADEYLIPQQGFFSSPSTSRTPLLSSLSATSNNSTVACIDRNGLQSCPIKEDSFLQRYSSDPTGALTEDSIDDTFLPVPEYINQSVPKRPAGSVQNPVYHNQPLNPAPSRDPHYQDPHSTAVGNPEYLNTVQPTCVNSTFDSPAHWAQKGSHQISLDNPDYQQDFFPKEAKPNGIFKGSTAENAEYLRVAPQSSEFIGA
T3 sequence (P00533 25-1210 T790M/C797S/L858R): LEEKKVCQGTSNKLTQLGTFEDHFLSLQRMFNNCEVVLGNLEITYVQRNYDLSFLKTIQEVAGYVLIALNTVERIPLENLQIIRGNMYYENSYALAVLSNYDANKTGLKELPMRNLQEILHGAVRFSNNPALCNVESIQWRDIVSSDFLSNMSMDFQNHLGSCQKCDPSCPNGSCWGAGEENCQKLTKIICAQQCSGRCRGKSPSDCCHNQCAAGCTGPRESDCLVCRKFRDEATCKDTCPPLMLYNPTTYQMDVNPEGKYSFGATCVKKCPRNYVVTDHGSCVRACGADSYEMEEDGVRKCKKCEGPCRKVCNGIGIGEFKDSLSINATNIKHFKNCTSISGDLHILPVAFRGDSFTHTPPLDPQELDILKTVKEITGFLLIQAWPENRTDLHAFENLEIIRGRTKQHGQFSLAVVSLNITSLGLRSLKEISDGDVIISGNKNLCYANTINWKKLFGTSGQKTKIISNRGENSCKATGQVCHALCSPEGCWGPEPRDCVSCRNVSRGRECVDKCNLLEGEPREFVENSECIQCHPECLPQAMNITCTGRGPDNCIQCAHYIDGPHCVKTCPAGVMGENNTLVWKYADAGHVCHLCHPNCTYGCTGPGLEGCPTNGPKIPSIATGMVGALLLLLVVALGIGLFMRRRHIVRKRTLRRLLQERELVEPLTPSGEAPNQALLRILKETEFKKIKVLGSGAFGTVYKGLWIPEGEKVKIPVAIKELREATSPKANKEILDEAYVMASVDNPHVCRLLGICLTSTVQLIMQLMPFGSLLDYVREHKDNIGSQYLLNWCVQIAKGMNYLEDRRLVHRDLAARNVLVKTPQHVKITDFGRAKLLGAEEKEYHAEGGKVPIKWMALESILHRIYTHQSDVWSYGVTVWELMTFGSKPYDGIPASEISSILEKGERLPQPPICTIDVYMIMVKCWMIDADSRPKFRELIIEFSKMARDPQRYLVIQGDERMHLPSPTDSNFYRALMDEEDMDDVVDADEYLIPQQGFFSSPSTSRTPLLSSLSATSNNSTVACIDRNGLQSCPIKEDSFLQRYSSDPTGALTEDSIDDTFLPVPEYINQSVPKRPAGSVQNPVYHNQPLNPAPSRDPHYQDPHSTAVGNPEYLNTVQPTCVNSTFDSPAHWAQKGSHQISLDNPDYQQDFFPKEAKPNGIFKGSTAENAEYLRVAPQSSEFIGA

| Compound | IC50 [1] | IC50 [2] | IC50 [3] | IC50 [4] |
| --- | --- | --- | --- | --- |
| C#Cc1cc(=O)n(-c2ccccc2)c2cc(Nc3ccccc3OC)ncc12 [Example 3, 4-Ethynyl-7-[(2-methoxyphenyl)amino]-1-phenyl-1,6-naphthyridin-2-one] | > 3 µM | > 10 µM | > 3 µM | > 3 µM |
| C#Cc1cc(=O)n(-c2ccccc2)c2nc(Nc3ccc(N(C)C(=O)CN(C)C)cc3OC)ncc12 [Example 7, 2-(Dimethylamino)-N-(4-((5-ethynyl-7-oxo-8-phenyl-7,8-dihydropyrido[2,3-d]pyrimidin-2-yl)amino)-3-methoxyphenyl)-N-methylacetamide] | > 3 µM | 1 to 10 µM | 1 to 3 µM | 1 to 3 µM |
| C#Cc1cc(=O)n(-c2ccccc2)c2nc(Nc3ccc(N(C)CCCN(C)C)cc3)ncc12 [Example 9, 2-((4-((3-(Dimethylamino)propyl)(methyl)amino)phenyl)amino)-5-ethynyl-8-phenylpyrido[2,3-d]pyrimidin-7(8H)-one] | > 3 µM | < 1 µM | < 0.5 µM | < 0.5 µM |
| C#Cc1cc(=O)n(-c2ccccc2)c2nc(NC3CCN(S(C)(=O)=O)CC3)ncc12 [Example 10, 5-Ethynyl-2-((1-(methylsulfonyl)piperidin-4-yl)amino)-8-phenylpyrido[2,3-d]pyrimidin-7(8H)-one] | > 3 µM | < 1 µM | > 3 µM | > 3 µM |
| C#Cc1cc(=O)n(-c2ccccc2)c2nc(Nc3ccc(N4CCN(C)CC4)c(C)c3)ncc12 [Example 12, 5-Ethynyl-2-{[3-methyl-4-(4-methylpiperazin-1-yl)phenyl]amino}-8-phenylpyrido[2,3-d]pyrimidin-7-one] | > 3 µM | < 1 µM | < 0.5 µM | < 0.5 µM |
| C#Cc1cc(=O)n(-c2ccccc2)c2nc(Nc3cnn(C4CCN(C)CC4)c3)ncc12 [Example 19, 5-Ethynyl-2-{[1-(1-methylpiperidin-4-yl)pyrazol-4-yl]amino}-8-phenylpyrido[2,3-d]pyrimidin-7-one] | > 3 µM | < 1 µM | < 0.5 µM | 0.5 to 1 µM |
| C#Cc1cc(=O)n(-c2ccccc2)c2nc(Nc3ccc(C4CCN(C)CC4)cc3)ncc12 [Example 21, 5-Ethynyl-2-{[4-(1-methylpiperidin-4-yl)phenyl]amino}-8-phenylpyrido[2,3-d]pyrimidin-7-one] | 1 to 3 µM | < 1 µM | < 0.5 µM | < 0.5 µM |
| C#Cc1cc(=O)n(-c2ccccc2)c2nc(Nc3ccc(C4CCNCC4)cc3)ncc12 [Example 22, 5-Ethynyl-8-phenyl-2-{[4-(piperidin-4-yl)phenyl]amino}pyrido[2,3-d]pyrimidin-7-one] | > 3 µM | < 1 µM | < 0.5 µM | < 0.5 µM |
| C#Cc1cc(=O)n(-c2ccccc2)c2nc(Nc3ccc(N4CCC(N5CCN(C)CC5)CC4)cc3)ncc12 [Example 23, 5-Ethynyl-2-({4-[4-(4-methylpiperazin-1-yl)piperidin-1-yl]phenyl}amino)-8-phenylpyrido[2,3-d]pyrimidin-7-one] | 1 to 3 µM | < 1 µM | < 0.5 µM | < 0.5 µM |
| C#Cc1cc(=O)n(-c2ccccc2)c2nc(Nc3ccc(N4CCN(C)CC4)c(CC)c3)ncc12 [Example 24, 2-{[3-Ethyl-4-(4-methylpiperazin-1-yl)phenyl]amino}-5-ethynyl-8-phenylpyrido[2,3-d]pyrimidin-7-one] | > 3 µM | < 1 µM | < 0.5 µM | < 0.5 µM |
| C#Cc1cc(=O)n(-c2ccccc2)c2nc(Nc3cnn(C)c3)ncc12 [Example 25, 5-Ethynyl-2-[(1-methylpyrazol-4-yl)amino]-8-phenylpyrido[2,3-d]pyrimidin-7-one] | > 3 µM | < 1 µM | 1 to 3 µM | 1 to 3 µM |
| C#Cc1cc(=O)n(-c2ccccc2)c2nc(Nc3ccc4c(c3)CCNCC4)ncc12 [Example 26, 5-ethynyl-8-phenyl-2-(2,3,4,5-tetrahydro-1H-3-benzazepin-7-ylamino)pyrido [2,3-d]pyrimidin-7-one] | 1 to 3 µM | < 1 µM | < 0.5 µM | < 0.5 µM |
| C#Cc1c(-c2c(Cl)cccc2Cl)c(=O)n(C)c2nc(Nc3cccc(CO)c3)ncc12 [Example 125, 6-(2,6-dichlorophenyl)-5-ethynyl-2-{[3-(hydroxymethyl)phenyl]amino}-8-methylpyrido[2,3-d]pyrimidin-7-one] | > 3 µM |  | > 3 µM | > 3 µM |

Now from value to compound:

| IC50 [1] | IC50 [2] | IC50 [3] | IC50 [4] | Compound |
| --- | --- | --- | --- | --- |
| 1 to 3 µM | < 1 µM | < 0.5 µM | < 0.5 µM | C#Cc1cc(=O)n(-c2ccccc2)c2nc(Nc3ccc(N4CCOCC4)cc3)ncc12 [Example 6, 5-Ethynyl-2-((4-morpholinophenyl)amino)-8-phenylpyrido[2,3-d]pyrimidin-7(8H)-one] |
| > 3 µM | < 1 µM | < 0.5 µM | < 0.5 µM | C#Cc1cc(=O)n(-c2ccccc2)c2nc(Nc3ccc(N4CCNCC4)cc3)ncc12 [Example 14, 5-Ethynyl-8-phenyl-2-{[4-(piperazin-1-yl)phenyl]amino}pyrido[2,3-d]pyrimidin-7-one] |
| > 3 µM | < 1 µM | < 0.5 µM | < 0.5 µM | C#Cc1cc(=O)n(-c2ccccc2)c2nc(Nc3ccc(N4CCN(CC)CC4)cc3)ncc12 [Example 15, 2-{[4-(4-Ethylpiperazin-1-yl)phenyl]amino}-5-ethynyl-8-phenylpyrido[2,3-d]pyrimidin-7-one] |
| 1 to 3 µM | < 1 µM | < 0.5 µM | < 0.5 µM | C#Cc1cc(=O)n(-c2ccccc2)c2nc(Nc3ccc(N4CCN(C(C)C)CC4)cc3)ncc12 [Example 16, 5-Ethynyl-2-{[4-(4-isopropylpiperazin-1-yl)phenyl]amino}-8-phenylpyrido[2,3-d]pyrimidin-7-one] |
| 1 to 3 µM | < 1 µM | < 0.5 µM | < 0.5 µM | C#Cc1cc(=O)n(-c2ccccc2)c2nc(Nc3ccc(N4CCN(CCO)CC4)cc3)ncc12 [Example 17, 5-ethynyl-2-({4-[4-(2-hydroxyethyl)piperazin-1-yl]phenyl}amino)-8-phenylpyrido[2,3-d]pyrimidin-7-one] |
| 1 to 3 µM | < 1 µM | < 0.5 µM | < 0.5 µM | C#Cc1cc(=O)n(-c2ccccc2)c2nc(Nc3ccc(N4CCN(C5COC5)CC4)cc3)ncc12 [Example 18, 5-Ethynyl-2-({4-[4-(oxetan-3-yl)piperazin-1-yl]phenyl}amino)-8-phenylpyrido[2,3-d]pyrimidin-7-one] |
| 1 to 3 µM | < 1 µM | < 0.5 µM | < 0.5 µM | C#Cc1cc(=O)n(-c2ccccc2)c2nc(Nc3ccc(N4CCCNCC4)cc3)ncc12 [Example 20, 2-{[4-(1,4-Diazepan-1-yl)phenyl]amino}-5-ethynyl-8-phenylpyrido[2,3-d]pyrimidin-7-one] |
| 1 to 3 µM | < 1 µM | < 0.5 µM | < 0.5 µM | C#Cc1cc(=O)n(-c2ccccc2)c2nc(Nc3ccc(N4CCNC(C)C4)cc3)ncc12 (stereo not drawn) [Example 27, 5-Ethynyl-2-{[4-(3-methylpiperazin-1-yl)phenyl]amino}-8-phenylpyrido[2,3-d]pyrimidin-7-one] |
| 1 to 3 µM | < 1 µM | < 0.5 µM | < 0.5 µM | C#Cc1cc(=O)n(-c2ccccc2)c2nc(Nc3ccc(N4CCC(N5CC(CO)C5)CC4)cc3)ncc12 [Example 28] |

Reference: patent US20260137703A1, “2-AMINO-PYRIDO[2,3-D]PYRIMIDIN-7(8H)-ONE AND 7-AMINO-1-PYRIMIDO[4,5-D]PYRIMIDIN-2(1 H)-ONE DERIVATIVES AS EGFR INHIBITORS FOR THE TREATMENT OF CANCER” (Cancer Research Technology Limited, priority 2022, published 2026)
